Measured values: PMC9381536, “Non-apoptotic cell death induction via sapogenin based supramolecular particles” (Scientific Reports, 2022)

Assays:
[1] = Measurement of particle diameter via Zeta Sizer; format: physicochemical; conditions: PBS, DLS
Experimental: AG-08 was dissolved in DMSO a 1000-fold concentrated stock and added into the filtered PBS. Then particle diameter was immediately measured via zeta-sizer (DLS–Particulate Systems). Measurement was repeated in triplicate.

[2] = system: differentially expressed genes; experiment: Microarray gene expression analysis (human Clariom D); format: cell-based
Experimental: To investigate the overall cellular response to AG-08 treatment, microarray gene expression analysis of cells treated with vehicle and AG-08 treated groups was performed. […] Next, protein–protein interaction (PPI) network analysis was evaluated by the STRING (Search Tool for the Retrieval of Interacting Genes/Proteins) network. There were 61 nodes and 145 edges in the network (PPI enrichment p-value < 1 × 10^–16). […] Then, enrichment was performed using GO and KEGG pathway analyses.
Microarray analyses were conducted using the human Clariom D Affymetrix platform following the manufacturer’s instructions (902915, Thermo Fisher Scientific). Briefly, the total RNA was isolated using Total RNA Isolation Kit (Bio-Rad, US). Isolated total RNA was amplified, labeled, and hybridized on Clariom D Affymetrix platform. The arrays were stained by using GeneChip Fluidics Station 450. The cartridge was scanned with the GeneChip Scanner 3000 7G System (Affymetrix CA, USA).

[3] = Cytotoxic activity after freeze–thaw cycle; format: cell-based; conditions: solution, no change in chemical structure
[4] = fold change ≥ 3.0, p-value ≤ 0.05

Cc1ccc(S(=O)(=O)OC2CCC3(C)C4=CCC5(C)C(C6(C)CCC(C(C)(C)O)O6)C(O)CC5(C)C4C=CC3C2(C)C)cc1 (stereo not drawn) [AG-08]
Diameter of supramolecular structures (hydrodynamic) [1]: 153.2 ± 4.6 | polydispersity index [1]: 0.218 | Gene expression level (Log2) ([2]; AC006548.19, control 6.1): 4.15 Log2 | Gene expression level (Log2) ([2]; AC068797.1, control 6.72): 4.17 Log2 | Gene expression level (Log2) ([2]; AC079949.1, control 5.75): 7.8 Log2 | Gene expression level (Log2) ([2]; ACSM3, control 6.76): 4.97 Log2 | Gene expression level (Log2) ([2]; AKAP12, control 6.27): 9.04 Log2 | Gene expression level (Log2) ([2]; AL161626.1, control 2.85): 4.86 Log2 | Gene expression level (Log2) ([2]; ATF3, control 5.19): 7.04 Log2 | Gene expression level (Log2) ([2]; CCL20, control 12.58): 15.79 Log2 | Gene expression level (Log2) ([2]; CHAC1, control 7.22): 9.98 Log2 | Gene expression level (Log2) ([2]; CREB5, control 8.35): 11.14 Log2 | Gene expression level (Log2) ([2]; CSF3, control 3.29): 5.21 Log2 | Gene expression level (Log2) ([2]; CSRNP1, control 5.26): 7.09 Log2 | Gene expression level (Log2) ([2]; CXCL2, control 8.19): 10.58 Log2 | Gene expression level (Log2) ([2]; CXCL3, control 6.99): 9.67 Log2 | Gene expression level (Log2) ([2]; CXCL8, control 9.63): 12.86 Log2 | Gene expression level (Log2) ([2]; DAW1, control 4.73): 7.07 Log2 | Gene expression level (Log2) ([2]; DDIT3, control 5.64): 8.56 Log2 | Gene expression level (Log2) ([2]; DNAJB9, control 8.13): 10.33 Log2 | Gene expression level (Log2) ([2]; DUSP1, control 10.95): 12.84 Log2 | Gene expression level (Log2) ([2]; ERO1B, control 6.9): 8.83 Log2 | Gene expression level (Log2) ([2]; ETS1, control 11.21): 13.17 Log2 | Gene expression level (Log2) ([2]; FGF5, control 4.09): 6.46 Log2 | Gene expression level (Log2) ([2]; FRMD6, control 7.12): 9.43 Log2 | Gene expression level (Log2) ([2]; GADD45A, control 11.09): 13.43 Log2 | Gene expression level (Log2) ([2]; GEM, control 4.45): 6.45 Log2 | Gene expression level (Log2) ([2]; HERPUD1, control 13.87): 15.89 Log2 | Gene expression level (Log2) ([2]; HSP90B1, control 8.38): 10.67 Log2 | Gene expression level (Log2) ([2]; HSPA1A, control 13.53): 15.75 Log2 | Gene expression level (Log2) ([2]; HSPA7, control 4.94): 7.45 Log2 | Gene expression level (Log2) ([2]; IL1A, control 10.2): 12.9 Log2 | Gene expression level (Log2) ([2]; IL1RL1, control 6.82): 10.06 Log2 | Gene expression level (Log2) ([2]; IL6, control 9.32): 11.97 Log2 | Gene expression level (Log2) ([2]; JUN, control 10.47): 12.32 Log2 | Gene expression level (Log2) ([2]; KRT5, control 11.75): 9.49 Log2 | Gene expression level (Log2) ([2]; LRRC49, control 6.77): 8.59 Log2 | Gene expression level (Log2) ([2]; MAP1B, control 7.26): 9.32 Log2 | Gene expression level (Log2) ([2]; MIR1284, control 5.93): 3.95 Log2 | Gene expression level (Log2) ([2]; MIR6515, control 4.75): 6.96 Log2 | Gene expression level (Log2) ([2]; NR4A1, control 6.63): 8.84 Log2 | Gene expression level (Log2) ([2]; PTGS2, control 9.7): 11.9 Log2 | Gene expression level (Log2) ([2]; RCAN1, control 11.4): 13.43 Log2 | Gene expression level (Log2) ([2]; RN7SKP36, control 4.9): 6.69 Log2 | Gene expression level (Log2) ([2]; RNA18S5, control 10): 12.08 Log2 | Gene expression level (Log2) ([2]; RNU11-6P, control 5.74): 3.79 Log2 | Gene expression level (Log2) ([2]; RP5-1180E21.5, control 9.91): 7.94 Log2 | Gene expression level (Log2) ([2]; RP11-74J13.9, control 5.92): 3.93 Log2 | Gene expression level (Log2) ([2]; RP11-253I19.3, control 5.74): 3.7 Log2 | Gene expression level (Log2) ([2]; RP11-632K20.8, control 8.77): 6.86 Log2 | Gene expression level (Log2) ([2]; SERPINE1, control 7.07): 9.03 Log2 | Gene expression level (Log2) ([2]; SIRPG-AS1, control 6.81): 4.97 Log2 | Gene expression level (Log2) ([2]; SPRR2A, control 6.12): 8.31 Log2 | Gene expression level (Log2) ([2]; SPRY4, control 4.5): 6.6 Log2 | Gene expression level (Log2) ([2]; TNFAIP3, control 12.92): 15.77 Log2 | Gene expression level (Log2) ([2]; TNFAIP6, control 7.73): 10.32 Log2 | Gene expression level (Log2) ([2]; TNFRSF9, control 6.22): 8.07 Log2 | Fold changes ([2]; UPR gene ATF3): 3.61 | Fold changes ([2]; UPR gene CXCL8): 9.38 | Fold changes ([2]; UPR gene DAW1): 5.06 | Fold changes ([2]; UPR gene DDIT3 (CHOP)): 7.57 | Fold changes ([2]; UPR gene DNAJB9): 4.59 | Fold changes ([2]; UPR gene HERPUD1): 4.06 | Fold changes ([2]; UPR gene HSP90B1): 4.89 | Fold changes ([2]; UPR gene HYOU1): 3.14 | Gene expression level (Log2) ([2]; Y_RNA, control 2.96): 4.88 Log2 | Gene expression level (Log2) ([2]; beyly, control 5.86): 3.88 Log2 | Gene expression level (Log2) ([2]; bonawbu, control 6.42): 4.47 Log2 | Gene expression level (Log2) ([2]; borflaw, control 4.1): 6.24 Log2 | Gene expression level (Log2) ([2]; cheeju, control 7.11): 4.53 Log2 | Gene expression level (Log2) ([2]; chergy, control 8.48): 6.6 Log2 | Gene expression level (Log2) ([2]; chostarby, control 9.01): 6.86 Log2 | Gene expression level (Log2) ([2]; choygey, control 9.26): 11.85 Log2 | Gene expression level (Log2) ([2]; dymabu, control 7.28): 4.94 Log2 | Gene expression level (Log2) ([2]; ferchor, control 6.47): 4.51 Log2 | Gene expression level (Log2) ([2]; floynabo, control 3.01): 5.07 Log2 | Gene expression level (Log2) ([2]; flyleyby, control 5.79): 3.87 Log2 | Gene expression level (Log2) ([2]; flyspabu, control 6.68): 4.45 Log2 | number of genes downregulated [2, 4]: 115 | number of genes significantly affected [2, 4]: 193 | number of genes upregulated [2, 4]: 78 | Gene expression level (Log2) ([2]; glupuby, control 8.3): 6.47 Log2 | Gene expression level (Log2) ([2]; guzobu, control 4.94): 3.12 Log2 | Gene expression level (Log2) ([2]; hunimo, control 2.97): 4.9 Log2 | Gene expression level (Log2) ([2]; jawrubu, control 6.99): 4.94 Log2 | Gene expression level (Log2) ([2]; keyfybu, control 6.35): 4.42 Log2 | Gene expression level (Log2) ([2]; klobly, control 8.49): 6.7 Log2 | Gene expression level (Log2) ([2]; kluky, control 6.37): 4.18 Log2 | Gene expression level (Log2) ([2]; leeklerbu, control 4.21): 2.34 Log2 | Gene expression level (Log2) ([2]; mazybu, control 5.07): 3.22 Log2 | Gene expression level (Log2) ([2]; muneme, control 5.09): 3.26 Log2 | Gene expression level (Log2) ([2]; myklar, control 6.22): 4.37 Log2 | Gene expression level (Log2) ([2]; plergler, control 8.38): 5.85 Log2 | Gene expression level (Log2) ([2]; rersharbu, control 8.82): 6.82 Log2 | Gene expression level (Log2) ([2]; runara, control 7): 4.96 Log2 | Gene expression level (Log2) ([2]; skaskoyby, control 8.54): 6.69 Log2 | Gene expression level (Log2) ([2]; skeymeybo, control 4.08): 5.88 Log2 | Gene expression level (Log2) ([2]; skoytoyby, control 3.86): 5.73 Log2 | Gene expression level (Log2) ([2]; slorfley, control 5.24): 3.4 Log2 | Gene expression level (Log2) ([2]; slukeebu, control 7.87): 5.7 Log2 | Gene expression level (Log2) ([2]; snawperbu, control 10.99): 8.51 Log2 | Gene expression level (Log2) ([2]; sneykleebu, control 7.89): 5.94 Log2 | Gene expression level (Log2) ([2]; spaforby, control 10.31): 8.45 Log2 | Gene expression level (Log2) ([2]; sparsloy, control 9.51): 7.2 Log2 | Gene expression level (Log2) ([2]; spernawbo, control 7.18): 5.32 Log2 | Gene expression level (Log2) ([2]; sportobo, control 11.14): 9.07 Log2 | Gene expression level (Log2) ([2]; steybleebu, control 9.69): 7.5 Log2 | Gene expression level (Log2) ([2]; swawchu, control 12.82): 10.51 Log2 | Gene expression level (Log2) ([2]; sworkaby, control 2.37): 4.69 Log2 | Gene expression level (Log2) ([2]; swyjee, control 7.88): 6.02 Log2 | Gene expression level (Log2) ([2]; teesnarby, control 5.92): 4.07 Log2 | Gene expression level (Log2) ([2]; vybu, control 2.47): 4.27 Log2 | Gene expression level (Log2) ([2]; vyglabu, control 2.86): 4.99 Log2 | cytotoxic activity after one freeze–thaw cycle [3]: lost
